Measurements as given in patent US20260365670A1, “EGFR INHIBITORS AND USES THEREOF” (DIZAL (JIANGSU) PHARMACEUTICAL CO., LTD., priority 2022, published 2026).
Read-outs that look alike come from different tables or passages of the source.

Tests used:
EGFR Exon19Del/T790M = biological target: T1, EGFR Exon19Del/T790M (Homo sapiens, UniProt P00533, DEL746-750/T790M); assay: Inhibition of EGFR Exon19Del/T790M biochemical enzymatic activity (HTRF); conditions: 1 mM ATP
T1 construct: purchased Carna Bio
In short: (§1)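 Following 1 h at room temperature with titrated compound, 1 mM ATP and 1 μM biotin-TK peptide (Mg2+/Mn2+, CHAPS, DTT, 0.5% DMSO buffer), EDTA-containing detection reagent terminated each enzyme reaction. Time-resolved fluorescence (ex 320, em 665/615 nm) ratio tracked activity. IC50 values came from four-parameter fits.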

[1] = biological target: T2, EGFR[T790M/C797S/d746-750] (Homo sapiens, UniProt P00533, C797S/DEL746-750/T790M); assay: Inhibition of EGFR[T790M/C797S/d746-750] biochemical enzymatic activity (HTRF)
T2 construct: purchased Carna Bio
In short: as §1

EGFR L858R/T790M = biological target: T3, EGFR L858R/T790M (Homo sapiens, UniProt P00533, L858R/T790M); assay: Inhibition of EGFR L858R/T790M biochemical enzymatic activity (HTRF); conditions: 1 mM ATP
T3 construct: purchased Carna Bio
In short: as §1

EGFR[T790M/C797S/L858R] = biological target: T4, EGFR[T790M/C797S/L858R] (Homo sapiens, UniProt P00533, C797S/L858R/T790M); assay: Inhibition of EGFR[T790M/C797S/L858R] biochemical enzymatic activity (HTRF); conditions: 1 mM ATP
T4 construct: purchased Carna Bio
In short: as §1

EGFR (d746-750 C797S) = biological target: T5, EGFR (d746-750 C797S) (Homo sapiens, UniProt P00533, C797S/DEL746-750); assay: Inhibition of EGFR (d746-750 C797S) biochemical enzymatic activity (HTRF); conditions: 1 mM ATP
T5 construct: purchased signalchem
In short: as §1

A-431 [2] = assay: Cell proliferation assay, A-431 cells (GI50, Table 6); type: cell-based; conditions: Homo sapiens, A-431, A-431 cells
Protocol: [Worded in the source for another cell line; this cell line is reported under the same test.] Ba/F3 cells expressing EGFR mutations were seeded in 384-well plates at 5000 cells/well in RPMI1640 medium containing […]. PC-9 at 500 cells/well was seeded into 384-well plates in RPMI1640 medium with 10% FBS. After overnight incubation, the assay plates were dosed with compounds at a series of concentrations. Alongside dosing the assay plates, the day 0 plate was processed using CellTiter-Glo® Luminescent Cell Viability Assay (Promega) to measure the number of viable cells (G0). The assay plates were further incubated for 72 hours and the number of viable cells (G3) was measured. The percentage of proliferation was calculated as: […]=100×(G3 value of sample well−G0 value)/(G3 value of DMSO control−G0 value). The concentration of compound producing 50% proliferation inhibition (GI50) was further calculated in best-fit curves using XLFit software. N/A=not available.

EGFR L858R = biological target: T6, EGFR L858R (Homo sapiens, UniProt P00533, L858R); assay: Inhibition of EGFR L858R biochemical enzymatic activity (HTRF); conditions: 1 mM ATP
T6 construct: purchased Carna Bio
In short: as §1

EGFR Exon19Del = biological target: T7, EGFR Exon19Del (Homo sapiens, UniProt P00533, DEL746-750); assay: Inhibition of EGFR Exon19Del biochemical enzymatic activity (HTRF); conditions: read-out: IC50 @Del19
T7 construct: purchased Carna Bio
In short: as §1

EGFR (C797S L858R) = biological target: T8, EGFR (C797S L858R) (Homo sapiens, UniProt P00533, C797S/L858R); assay: Inhibition of EGFR (C797S L858R) biochemical enzymatic activity (HTRF); conditions: 1 mM ATP
T8 construct: purchased signalchem
In short: as §1

PC-9 = assay: Cell proliferation assay, PC-9 cells (CellTiter-Glo, 72 hours); type: cell-based; conditions: PC9 cells
In short: (§2)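 In RPMI1640 medium (PC-9 with 10% FBS), each cell line was seeded at its own density: Ba/F3 5000 and PC-9 500 per well. A compound series was added the next day, with a time-zero viability plate read in parallel. Percent proliferation was subtracted for G0 and referenced to DMSO, and GI50 was derived by curve fitting.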

[3] = tested on: Ba/F3 cells expressing EGFR mutations; assay: Cell proliferation assay, Ba/F3 cells expressing EGFR mutations (CellTiter-Glo, 72 hours); type: cell-based
In short: as §2

A-431 [4] = assay: Cell proliferation GI50, A-431 cells (Table 6); type: cell-based
EGFR wild type = biological target: T9, EGFR wild type (Homo sapiens, UniProt P00533); assay: Inhibition of EGFR wild type biochemical enzymatic activity (HTRF); conditions: EGFR WT, 1 mM ATP, 1 h, room temperature, read-out: IC50 (nM) @WT
T9 construct: purchased Carna Bio
In short: as §1

[5] = EGFR Del19-T790M, 1 h, room temperature, read-out: IC50 (nM) @Del19-T790M
[6] = EGFR T790M-C797S-Del19, 1 mM ATP, 1 h, room temperature, read-out: IC50 (nM) @T790M - C797S - Del19
[7] = EGFR L858R-T790M, 1 h, room temperature, read-out: IC50 (nM) @L858R-T790M
[8] = EGFR T790M-C797S-L858R, 1 h, room temperature, read-out: IC50 (nM) @T790M- C797S - L858R
[9] = EGFR Del19-C797S, 1 h, room temperature, read-out: IC50 (nM) @Del19-C797S
[10] = 1 h, room temperature, read-out: IC50 (nM) @L858R
[11] = EGFR Del19, 1 mM ATP, 1 h, room temperature
[12] = EGFR L858-C797S, 1 h, room temperature, read-out: IC50 (nM) @L858-C797S
[13] = CellTiter-Glo, read-out: PC9 GI50
[14] = BaF3 cells, EGFR DEL19-C797S, CellTiter-Glo, read-out: DEL19-C797S/BaF3 GI50
[15] = BaF3 cells, EGFR DEL19-T790-C797S, CellTiter-Glo, read-out: DEL19-T790-C797S/BaF3 GI50
[16] = BaF3 cells, EGFR L858R, CellTiter-Glo, read-out: L858R/BaF3 GI50
[17] = BaF3 cells, EGFR L858R-C797S, CellTiter-Glo, read-out: L858R-C797S/BaF3 GI50
[18] = BaF3 cells, EGFR L858R-T790-C797S, CellTiter-Glo, read-out: L858R-T790-C797S/BaF3 GI50
[19] = BaF3 cells, EGFR L858R-T790M, CellTiter-Glo, read-out: L858R-T790M/BaF3 GI50
[20] = EGFR DEL19-T790M, CellTiter-Glo, read-out: DEL19-T790M GI50

T7 sequence (P00533 with tags, fused parts or gaps DEL746-750 limits assumed): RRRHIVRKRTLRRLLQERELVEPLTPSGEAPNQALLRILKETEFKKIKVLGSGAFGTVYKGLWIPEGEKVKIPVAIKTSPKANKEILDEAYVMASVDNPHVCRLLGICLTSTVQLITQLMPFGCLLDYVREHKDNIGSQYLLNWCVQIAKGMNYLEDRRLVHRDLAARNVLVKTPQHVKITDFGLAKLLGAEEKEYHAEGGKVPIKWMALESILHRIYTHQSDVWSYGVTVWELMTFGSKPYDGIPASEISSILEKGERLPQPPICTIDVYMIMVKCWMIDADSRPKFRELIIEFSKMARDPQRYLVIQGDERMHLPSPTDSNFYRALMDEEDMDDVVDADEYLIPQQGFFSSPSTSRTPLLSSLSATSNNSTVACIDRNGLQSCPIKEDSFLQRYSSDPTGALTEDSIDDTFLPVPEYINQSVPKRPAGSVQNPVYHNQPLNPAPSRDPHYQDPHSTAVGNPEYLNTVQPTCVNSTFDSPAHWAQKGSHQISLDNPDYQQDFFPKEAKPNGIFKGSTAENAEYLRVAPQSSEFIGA
T9 sequence (P00533 25-1210): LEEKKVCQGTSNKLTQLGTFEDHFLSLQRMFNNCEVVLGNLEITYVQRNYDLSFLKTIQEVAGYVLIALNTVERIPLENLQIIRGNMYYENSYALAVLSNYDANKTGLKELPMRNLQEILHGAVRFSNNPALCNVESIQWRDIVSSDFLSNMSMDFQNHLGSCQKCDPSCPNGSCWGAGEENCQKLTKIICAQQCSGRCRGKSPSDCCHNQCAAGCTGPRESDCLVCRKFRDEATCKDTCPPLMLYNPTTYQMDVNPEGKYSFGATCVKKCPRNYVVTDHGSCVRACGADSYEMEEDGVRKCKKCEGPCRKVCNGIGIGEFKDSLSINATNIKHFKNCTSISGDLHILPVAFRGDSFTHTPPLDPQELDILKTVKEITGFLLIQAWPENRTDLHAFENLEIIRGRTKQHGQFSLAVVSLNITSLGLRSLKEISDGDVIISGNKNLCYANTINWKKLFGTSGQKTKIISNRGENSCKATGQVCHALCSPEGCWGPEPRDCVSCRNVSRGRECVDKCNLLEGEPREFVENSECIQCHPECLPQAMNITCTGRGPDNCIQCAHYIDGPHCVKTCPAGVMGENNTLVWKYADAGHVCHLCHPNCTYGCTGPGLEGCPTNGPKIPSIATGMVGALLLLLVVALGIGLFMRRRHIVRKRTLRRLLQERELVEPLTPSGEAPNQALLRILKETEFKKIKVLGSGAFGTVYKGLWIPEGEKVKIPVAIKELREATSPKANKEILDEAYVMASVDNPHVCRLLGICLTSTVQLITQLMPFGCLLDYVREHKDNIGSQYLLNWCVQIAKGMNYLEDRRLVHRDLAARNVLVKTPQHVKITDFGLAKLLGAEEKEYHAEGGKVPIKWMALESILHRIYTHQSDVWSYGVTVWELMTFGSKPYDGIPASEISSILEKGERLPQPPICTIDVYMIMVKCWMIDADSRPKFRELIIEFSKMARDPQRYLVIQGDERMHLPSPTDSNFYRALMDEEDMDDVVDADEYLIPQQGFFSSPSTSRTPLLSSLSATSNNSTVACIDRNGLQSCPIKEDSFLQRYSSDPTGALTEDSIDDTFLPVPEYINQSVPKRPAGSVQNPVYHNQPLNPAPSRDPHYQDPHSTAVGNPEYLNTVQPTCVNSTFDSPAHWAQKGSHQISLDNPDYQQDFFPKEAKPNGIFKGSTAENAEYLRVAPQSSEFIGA
T4 sequence (P00533 25-1210 T790M/C797S/L858R): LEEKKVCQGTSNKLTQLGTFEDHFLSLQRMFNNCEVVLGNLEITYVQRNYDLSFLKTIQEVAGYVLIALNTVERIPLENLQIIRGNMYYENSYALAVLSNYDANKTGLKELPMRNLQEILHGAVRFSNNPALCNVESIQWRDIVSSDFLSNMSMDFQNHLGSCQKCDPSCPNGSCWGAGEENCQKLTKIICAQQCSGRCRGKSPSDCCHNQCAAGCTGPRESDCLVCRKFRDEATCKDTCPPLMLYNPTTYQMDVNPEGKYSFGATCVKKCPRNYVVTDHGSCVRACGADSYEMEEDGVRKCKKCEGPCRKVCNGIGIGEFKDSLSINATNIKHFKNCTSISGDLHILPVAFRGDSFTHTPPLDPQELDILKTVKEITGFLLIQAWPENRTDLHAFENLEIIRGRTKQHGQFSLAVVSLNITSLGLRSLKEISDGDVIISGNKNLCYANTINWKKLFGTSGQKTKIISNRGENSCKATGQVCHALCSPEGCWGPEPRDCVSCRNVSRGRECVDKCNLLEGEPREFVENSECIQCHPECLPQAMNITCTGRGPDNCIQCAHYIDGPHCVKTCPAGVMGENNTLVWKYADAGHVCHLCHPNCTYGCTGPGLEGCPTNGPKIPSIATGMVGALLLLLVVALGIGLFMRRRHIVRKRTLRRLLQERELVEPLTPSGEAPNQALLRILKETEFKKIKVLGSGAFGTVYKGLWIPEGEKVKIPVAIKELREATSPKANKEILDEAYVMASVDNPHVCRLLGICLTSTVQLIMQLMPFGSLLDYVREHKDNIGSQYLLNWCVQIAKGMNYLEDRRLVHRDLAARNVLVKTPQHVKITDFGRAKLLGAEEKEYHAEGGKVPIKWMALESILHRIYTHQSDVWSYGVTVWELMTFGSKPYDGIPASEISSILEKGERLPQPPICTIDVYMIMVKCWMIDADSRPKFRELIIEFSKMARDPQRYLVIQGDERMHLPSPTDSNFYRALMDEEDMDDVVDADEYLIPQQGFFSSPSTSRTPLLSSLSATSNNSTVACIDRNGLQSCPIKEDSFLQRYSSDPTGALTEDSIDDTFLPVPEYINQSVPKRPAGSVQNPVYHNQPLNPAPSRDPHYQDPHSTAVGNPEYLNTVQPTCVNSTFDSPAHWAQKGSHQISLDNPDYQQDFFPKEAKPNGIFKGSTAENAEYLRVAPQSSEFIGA
T2 sequence (P00533 with tags, fused parts or gaps DEL746-750/T790M/C797S limits assumed): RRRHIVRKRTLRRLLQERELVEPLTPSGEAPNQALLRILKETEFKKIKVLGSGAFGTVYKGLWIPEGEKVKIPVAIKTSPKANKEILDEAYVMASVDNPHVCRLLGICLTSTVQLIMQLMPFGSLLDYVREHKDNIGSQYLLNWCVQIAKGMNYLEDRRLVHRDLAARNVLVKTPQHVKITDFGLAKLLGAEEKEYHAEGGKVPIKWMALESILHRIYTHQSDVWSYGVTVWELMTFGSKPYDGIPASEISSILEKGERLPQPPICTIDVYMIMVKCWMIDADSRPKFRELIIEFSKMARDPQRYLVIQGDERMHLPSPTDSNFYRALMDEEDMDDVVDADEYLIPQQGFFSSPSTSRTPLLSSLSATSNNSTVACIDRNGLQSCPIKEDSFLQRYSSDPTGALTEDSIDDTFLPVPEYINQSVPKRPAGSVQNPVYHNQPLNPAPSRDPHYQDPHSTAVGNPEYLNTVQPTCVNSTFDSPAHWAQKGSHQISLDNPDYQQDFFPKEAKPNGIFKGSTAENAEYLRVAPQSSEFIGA
T8 sequence (P00533 25-1210 C797S/L858R): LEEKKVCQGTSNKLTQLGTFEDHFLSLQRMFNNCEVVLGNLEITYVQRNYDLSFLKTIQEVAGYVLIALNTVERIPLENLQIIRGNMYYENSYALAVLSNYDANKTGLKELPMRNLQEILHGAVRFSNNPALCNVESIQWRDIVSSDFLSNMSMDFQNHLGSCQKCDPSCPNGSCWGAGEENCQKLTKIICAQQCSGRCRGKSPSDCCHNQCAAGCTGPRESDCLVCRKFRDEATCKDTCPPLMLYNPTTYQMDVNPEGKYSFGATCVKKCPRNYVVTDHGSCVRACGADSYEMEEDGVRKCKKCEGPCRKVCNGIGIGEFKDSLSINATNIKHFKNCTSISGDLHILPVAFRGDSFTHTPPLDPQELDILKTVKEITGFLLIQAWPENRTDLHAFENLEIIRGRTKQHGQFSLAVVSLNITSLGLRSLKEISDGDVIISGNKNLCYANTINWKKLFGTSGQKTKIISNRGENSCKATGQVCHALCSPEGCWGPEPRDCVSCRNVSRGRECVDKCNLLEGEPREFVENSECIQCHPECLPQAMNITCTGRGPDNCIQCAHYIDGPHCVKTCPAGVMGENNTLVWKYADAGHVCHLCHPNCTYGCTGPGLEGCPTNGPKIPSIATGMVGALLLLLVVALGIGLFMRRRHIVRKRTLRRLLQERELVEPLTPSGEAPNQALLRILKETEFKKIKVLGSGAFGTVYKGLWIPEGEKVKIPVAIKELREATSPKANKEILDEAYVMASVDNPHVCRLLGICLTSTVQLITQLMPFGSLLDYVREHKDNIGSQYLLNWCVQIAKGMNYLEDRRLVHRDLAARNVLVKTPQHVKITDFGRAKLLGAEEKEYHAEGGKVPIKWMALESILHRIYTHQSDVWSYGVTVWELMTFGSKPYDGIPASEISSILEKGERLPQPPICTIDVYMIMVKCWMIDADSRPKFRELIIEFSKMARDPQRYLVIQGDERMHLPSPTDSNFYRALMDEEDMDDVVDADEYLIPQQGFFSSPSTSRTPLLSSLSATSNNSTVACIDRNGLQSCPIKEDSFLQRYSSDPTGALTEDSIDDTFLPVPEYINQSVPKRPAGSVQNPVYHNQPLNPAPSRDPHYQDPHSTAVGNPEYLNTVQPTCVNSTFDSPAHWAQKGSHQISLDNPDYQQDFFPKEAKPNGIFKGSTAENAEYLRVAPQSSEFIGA

Compound	IC50 (EGFR Exon19Del/T790M; [5]) [nM]	IC50 [1, 6] [nM]	IC50 (EGFR wild type) [nM]	IC50 (EGFR L858R/T790M; [7]) [nM]	IC50 (EGFR[T790M/C797S/L858R]; [8]) [nM]	IC50 (EGFR (d746-750 C797S); [9]) [nM]	IC50 (EGFR L858R; [10]) [nM]	IC50 (EGFR Exon19Del; [11]) [nM]	IC50 (EGFR (C797S L858R); [12]) [nM]	GI50 (A-431 [4]; A-431 cells) [nM]	GI50 (PC-9; [13]) [nM]	GI50 [3, 14] [nM]	GI50 [3, 15] [nM]	GI50 [3, 16] [nM]	GI50 [3, 17] [nM]	GI50 [3, 18] [nM]	GI50 [3, 19] [nM]	GI50 [3, 20] [nM]	further results
Cc1cc2cc(n1)-c1cnn(C)c1OCCN1CC3CCC(CC3)(C1)n1c(nc3ccc(N4CCC5(CCN(C)CC5)C4)cc31)NC2=O [Example B31]	–	–	–	–	–	–	–	–	–	–	–	–	–	–	–	–	–	–	IC50 (EGFR Exon19Del/T790M; EGFR Exon19Del/T790M, 1 h at room temperature, read-out: IC50 @Del19-T790M): 11 nM; IC50 ([1]; EGFR[T790M/C797S/d746-750], 1 mM ATP, 1 h at room temperature, read-out: IC50 @T790M - C797S - Del19): 7.3 nM; IC50 (EGFR L858R/T790M; EGFR L858R/T790M, 1 h at room temperature, read-out: IC50 @L858R-T790M): 20 nM; IC50 (EGFR[T790M/C797S/L858R]; EGFR[T790M/C797S/L858R], 1 h at room temperature, read-out: IC50 @T790M- C797S - L858R): 8.2 nM; IC50 (EGFR (d746-750 C797S); EGFR (d746-750 C797S), 1 h at room temperature, read-out: IC50 @Del19-C797S): 15 nM; GI50 (A-431 [2]): 1680 nM; IC50 (EGFR L858R; 1 h at room temperature, read-out: IC50 @L858R): 244 nM; IC50 (EGFR Exon19Del; EGFR Exon19Del, 1 mM ATP, 1 h at room temperature): 19 nM; IC50 (EGFR (C797S L858R); EGFR (C797S L858R), 1 h at room temperature, read-out: IC50 @L858-C797S): 113 nM; GI50 (PC-9; Homo sapiens, PC-9, 72 h, read-out: GI50 PC9): 103 nM; GI50 ([3]; Mus musculus, BaF3, 72 h, BaF3 cells, EGFR DEL19 - C797S, read-out: GI50 DEL19 - C797S/BaF3): 24 nM; GI50 ([3]; Mus musculus, BaF3, 72 h, BaF3 cells, EGFR DEL19 - T790-C797S, read-out: GI50 DEL19 - T790-C797S/BaF3): 10 nM; GI50 ([3]; Mus musculus, BaF3, 72 h, BaF3 cells, EGFR L858R - C797S, read-out: GI50 L858R - C797S/BaF3): 127 nM; GI50 ([3]; Mus musculus, BaF3, 72 h, BaF3 cells, EGFR L858R - T790-C797S, read-out: GI50 L858R - T790-C797S/BaF3): 19 nM; GI50 ([3]; Mus musculus, BaF3, 72 h, BaF3 cells, EGFR L858R - T790M, read-out: GI50 L858R - T790M/BaF3): 38 nM; GI50 ([3]; Mus musculus, BaF3, 72 h, BaF3 cells, EGFR L858R, read-out: GI50 L858R/BaF3): 81 nM; GI50 ([3]; Mus musculus, BaF3, 72 h, EGFR DEL19 - T790M, read-out: GI50 DEL19 - T790M): 10 nM
C[C@@H]1CCCOc2c(cnn2C)-c2cc(cn(C)c2=O)C(=O)Nc2nc3ccc(N4CCC5(CCN(C)C5)CC4)cc3n2C1 [Example A35]	1.9	2	2.7	2.2	2	0.84	1.5	1.1	1.8	–	–	–	–	–	–	–	–	–	GI50 (A-431 [4]; Homo sapiens, A-431, A-431 cells): 215 nM; GI50 (PC-9; Homo sapiens, PC-9, 72 h, CellTiter-Glo, read-out: PC9 GI50): 3.7 nM; GI50 ([3]; Mus musculus, BaF3, 72 h, BaF3 cells, EGFR DEL19-C797S, CellTiter-Glo, read-out: DEL19-C797S/BaF3 GI50): 0.38 nM; GI50 ([3]; Mus musculus, BaF3, 72 h, BaF3 cells, EGFR DEL19-T790-C797S, CellTiter-Glo, read-out: DEL19-T790-C797S/BaF3 GI50): 0.5 nM; GI50 ([3]; Mus musculus, BaF3, 72 h, BaF3 cells, EGFR L858R, CellTiter-Glo, read-out: L858R/BaF3 GI50): 0.53 nM; GI50 ([3]; Mus musculus, BaF3, 72 h, BaF3 cells, EGFR L858R-C797S, CellTiter-Glo, read-out: L858R-C797S/BaF3 GI50): 1.7 nM; GI50 ([3]; Mus musculus, BaF3, 72 h, BaF3 cells, EGFR L858R-T790-C797S, CellTiter-Glo, read-out: L858R-T790-C797S/BaF3 GI50): 1 nM; GI50 ([3]; Mus musculus, BaF3, 72 h, BaF3 cells, EGFR L858R-T790M, CellTiter-Glo, read-out: L858R-T790M/BaF3 GI50): 3.4 nM; GI50 ([3]; Mus musculus, BaF3, 72 h, EGFR DEL19-T790M, CellTiter-Glo, read-out: DEL19-T790M GI50): 1.6 nM
CN(C)C1CCN(c2ccc3nc4n(c3c2)C23CCC(CN(CCOc5c(cnn5C)-c5cc(cn(C)c5=O)C(=O)N4)C2)C3)CC1(F)F (single isomer, unassigned) [Example A97A]	> 5000	> 5000	> 5000	> 5000	> 5000	850	3030	1190	3950	5790	763	102	527	129	325	124	1000	459	–
CN1CCN(c2ccc3c(c2)nc2n3C34CCC(CN(CCOc5c(cnn5C)-c5cc(cn(C)c5=O)C(=O)N2)C3)C4)CC1 (centres unmarked) [Example A60A, 15,21-dimethyl-6-(4-methylpiperazin-1-yl)-23-oxa-2,9,11,15,20,21,26-heptaazaheptacyclo[24.4.1.1^{1,28}.1^{13,17}.0^{2,10}.0^{3,8}.0^{18,22}]tritriaconta-3,5,7,9,13,17(33),18(22),19-octaene-12,16-dione]	141	117	> 5000	> 5000	> 5000	196	> 5000	276	> 5000	6550	633	96	166	315	519	403	1400	285	–
